IC50 data for 10 molecules are collected here from ChEMBL document CHEMBL1151490, “Inhibition of farnesyl protein transferase by new farnesyl phosphonate derivatives of phenylalanine” (Bioorg Med Chem Lett, 1996).

The target of test [1] is T1, Protein farnesyltransferase (Bos taurus, UniProt P29702+P49355). Nature of the test: Inhibition of farnesyl protein transferase from bovine brain.
In test [2] the target is T2, Squalene synthase (Rattus norvegicus, UniProt Q02769).
T2 sequence (Q02769 whole entry): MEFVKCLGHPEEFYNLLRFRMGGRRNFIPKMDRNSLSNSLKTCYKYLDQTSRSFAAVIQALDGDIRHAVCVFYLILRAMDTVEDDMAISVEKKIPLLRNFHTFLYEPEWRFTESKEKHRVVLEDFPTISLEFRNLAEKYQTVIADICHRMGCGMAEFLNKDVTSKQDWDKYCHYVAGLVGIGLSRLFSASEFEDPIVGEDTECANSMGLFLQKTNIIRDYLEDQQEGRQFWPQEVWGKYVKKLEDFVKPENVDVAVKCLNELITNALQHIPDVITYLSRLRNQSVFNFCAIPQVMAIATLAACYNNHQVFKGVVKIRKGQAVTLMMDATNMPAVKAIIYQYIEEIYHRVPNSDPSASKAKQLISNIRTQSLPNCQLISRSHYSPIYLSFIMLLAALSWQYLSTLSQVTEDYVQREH
Nature of the test: Inhibition of squalene synthase from rat liver microsomes. A general note: Liver microsomes are vesicles of endoplasmic reticulum, rich in cytochrome P450 enzymes.

Test [3] deals with T1, Protein farnesyltransferase. Nature of the test: Inhibition of Farnesyltransferase from bovine brain.

A value given as a limit tells only on which side of the number the result lay.

With `CC(C)=CCC/C(C)=C/CC/C(C)=C/CC(C(=O)O)C(=O)NC(Cc1ccccc1)C(=O)O` (centres undefined), the results for the concentration for half-maximal inhibition (IC50) in test [1] and in test [2] were 37000 nM and 2400 nM, respectively. For `CC(C)=CCC/C(C)=C/CC/C(C)=C/CC(CCP(=O)(O)O)C(=O)N[C@@H](Cc1ccccc1)C(=O)O` (some centres undefined), in that order: 10000 nM and 4200 nM. For `CC(C)=CCC/C(C)=C/CC/C(C)=C/C(O)P(=O)(O)O` (centres undefined), in that order: 410 nM and 2300 nM.

In the case of `COC(=O)[C@H](Cc1ccccc1)NC(=O)C(C/C=C(\C)CC/C=C(\C)CCC=C(C)C)P(=O)(O)O` (some centres undefined), the IC50 in test [1] is greater than 100000 nM; in test [2], 1400 nM. For `CC(C)=CCC/C(C)=C/CC/C(C)=C/CC(C(=O)N[C@@H](Cc1ccccc1)C(=O)O)P(=O)(O)O` (some centres undefined), in that order: 80 nM and 1300 nM. `CC(C)=CCC/C(C)=C/CC/C(C)=C/CC(CP(=O)(O)O)C(=O)N[C@@H](Cc1ccccc1)C(=O)O` (some centres undefined): the IC50 in test [1] was 170 nM; in test [2], 90 nM.

`CC(C)=CCC/C(C)=C/CC/C(C)=C/CC(C(=O)NCCc1ccccc1)P(=O)(O)O` (centres undefined): the IC50 in test [1] came to 13000 nM; in test [2] it was 480 nM.

With `CC(C)=CCC/C(C)=C/CC/C(C)=C/CC(C(=O)N[C@H](Cc1ccccc1)C(=O)O)P(=O)(O)O` (some centres undefined), the values for the IC50 in test [1] and in test [2] were 980 nM and 500 nM, respectively. Consider `CC(C)=CCC/C(C)=C/CC/C(C)=C/CC(CC(=O)N[C@@H](Cc1ccccc1)C(=O)O)P(=O)(O)O` (some centres undefined), for which the IC50 in test [1] was 470 nM; in test [2], 220 nM. `CC(C)=CCC/C(C)=C/CCCC(P(=O)(O)O)P(=O)(O)O` [SQ-34919] returned a half-inhibitory concentration (IC50) in test [3] of 80000 nM.

As a reminder, the IC50 is the concentration at which inhibition is half-maximal. Low readings indicate greater potency, high ones weaker potency.
